# Assay results taken from PubChem BioAssay (NCI).
#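 These data come from cells grown in 96-well plates and exposed to compound for 48 hours at five concentrations. The concentration for 50% growth inhibition is given as GI50. TGI: concentration producing complete growth inhibition.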
# How the values were obtained:
# Assay in all cases: growth of human tumour cells (NCI), 48 h
# [1] = test system: ACHN renal
# [2] = test system: HCC-2998 colon
# [3] = test system: HL-60(TB) leukemia
# [4] = test system: HS 578T breast
# [5] = test system: MDA-MB-231 breast
# [6] = test system: OVCAR-4 ovarian
# [7] = test system: SF-539 CNS
# [8] = test system: SR leukemia
# [9] = test system: DLD-1 colon
Structure (SMILES),TGI [1],TGI [2],TGI [3],TGI [4],TGI [5],TGI [6],TGI [7],TGI [8],GI50 [1],GI50 [2],GI50 [3],GI50 [4],GI50 [5],GI50 [6],GI50 [7],GI50 [8],TGI [9]
O=C(Nc1cc2cc([N+](=O)[O-])ccc2oc1=O)c1cccs1,> 100 µM,> 100 µM,44.5 µM,> 100 µM,> 100 µM,> 100 µM,69.9 µM,> 100 µM,–,–,–,–,–,–,–,–,–
CCC(C)C(=O)OC1CCC=C2C=CC(C)C(CCC3CC(O)CC(=O)O3)C21 (configuration not stated),> 88 µM,> 100 µM,> 100 µM,17.4 µM,> 64.7 µM,> 100 µM,> 29.5 µM,> 51 µM,–,–,–,–,–,–,–,–,–
C(=C\c1ccc(OCC2CO2)cc1)/C1=NCOC1 (configuration not stated),19.5 µM,22.6 µM,9.16 µM,54.2 µM,30.7 µM,31.9 µM,25.8 µM,11.9 µM,5.47 µM,7.43 µM,2.35 µM,16 µM,14.7 µM,15.4 µM,9.48 µM,3.05 µM,–
CCOC(=O)c1cc2c(n1Cc1cc(OC)cc(OC)c1)-c1oncc1CC2,> 100 µM,> 100 µM,1.15 µM,> 96.2 µM,> 95.8 µM,> 100 µM,4.58 µM,> 36.8 µM,2.22 µM,0.411 µM,0.0634 µM,0.156 µM,1.09 µM,1.06 µM,0.243 µM,0.0475 µM,–
CN(C)CCNC(=O)c1cccc2c1nc(-c1ccncc1)c1ccccc12,10.6 µM,16.7 µM,> 100 µM,–,–,15.6 µM,10.7 µM,–,–,–,–,–,–,–,–,–,14.2 µM
O=C(CC1Sc2ccccc2NC1=O)NNc1ccc(F)cc1 (configuration not stated),> 100 µM,> 100 µM,> 100 µM,> 100 µM,> 100 µM,> 100 µM,61.8 µM,> 100 µM,7.07 µM,30.9 µM,7.9 µM,72.4 µM,47.6 µM,> 100 µM,16.3 µM,14.4 µM,–
COc1ccc2c(c1)C(=O)c1c-2n(CCCCl)c(=O)c2cc(N)ccc12,> 100 µM,> 100 µM,> 59.1 µM,> 100 µM,> 95.7 µM,> 100 µM,> 100 µM,> 100 µM,98.4 µM,> 100 µM,> 41.3 µM,> 96.3 µM,25.6 µM,> 96.7 µM,> 100 µM,> 62.8 µM,–
NS(=O)(=O)c1cc(C(=O)O)c(Cl)c([N+](=O)[O-])c1Cl,> 100 µM,> 100 µM,> 100 µM,> 100 µM,> 100 µM,> 100 µM,> 100 µM,> 100 µM,–,–,–,–,–,–,–,–,–
CN(C)C/C=C/C(=O)Nc1cc2c(Nc3cccc(Cl)c3F)ncnc2cc1OCCOC(F)F,10.7 µM,10.9 µM,7.23 µM,7.02 µM,7.78 µM,11.6 µM,5.59 µM,5.22 µM,< 0.01 µM,2.1 µM,1.71 µM,1.46 µM,1.09 µM,1.5 µM,1.5 µM,1.18 µM,–
NCCCNc1nc2ccccc2c2c(=O)c3cc(F)cc(Cl)c3sc12,3.07 µM,3.68 µM,6.58 µM,3.62 µM,3.07 µM,3.63 µM,3.27 µM,4.04 µM,1.7 µM,1.79 µM,2.45 µM,1.68 µM,1.58 µM,1.82 µM,1.83 µM,1.19 µM,–
COC(=O)[C@H](CCCCNC(=O)OCc1ccccc1)NC(=O)[C@@H](NC(=O)Nc1cc(C(F)(F)F)cc(C(F)(F)F)c1)C(C)C,> 10 µM,> 10 µM,> 10 µM,> 10 µM,> 10 µM,> 10 µM,> 10 µM,> 10 µM,> 10 µM,> 10 µM,> 10 µM,> 10 µM,> 10 µM,> 10 µM,> 10 µM,> 10 µM,–
O=C(Nc1ccc(Cl)cc1)N1CCN(c2ccc3nncn3n2)CC1,> 100 µM,> 100 µM,> 100 µM,> 100 µM,> 100 µM,> 100 µM,> 100 µM,> 100 µM,50.6 µM,81.8 µM,29.8 µM,> 100 µM,63.2 µM,51.6 µM,> 100 µM,24.5 µM,–
CC1(C)CN(CCNc2nccc(-c3c(-c4cccc(O)c4)nc4sccn34)n2)S(=O)(=O)N1,> 33.2 µM,> 33.2 µM,30.2 µM,25 µM,> 33.2 µM,> 33.2 µM,> 33.2 µM,> 33.2 µM,7.07 µM,19.5 µM,10.2 µM,4.72 µM,7.94 µM,12.8 µM,30 µM,3.34 µM,–
COc1ccc(NC(=O)c2cccc(C3CCc4c(cc(OC)c(OC)c4OC)O3)c2)cc1 (configuration not stated),> 100 µM,> 100 µM,> 100 µM,> 100 µM,> 100 µM,> 100 µM,7.01 µM,> 100 µM,4.28 µM,6.01 µM,1.25 µM,2.69 µM,4.13 µM,3.14 µM,2.52 µM,0.419 µM,–
CCC(=C(c1ccc(OCCN2CCCC2)cc1)c1ccc(OCCN2CCCC2)cc1)c1ccc(Cl)cc1,1.06 µM,1.07 µM,1.27 µM,1.52 µM,1.11 µM,1.43 µM,1.05 µM,1.09 µM,0.585 µM,0.566 µM,0.606 µM,0.659 µM,0.589 µM,0.667 µM,0.558 µM,0.347 µM,–
O=C(COc1cccc(/C=C2\Oc3ccc4ccccc4c3C2=O)c1)c1ccc([N+](=O)[O-])cc1,> 100 µM,> 100 µM,> 100 µM,56.1 µM,68.8 µM,60.3 µM,32.1 µM,> 100 µM,60.2 µM,15.7 µM,62.7 µM,18.2 µM,18.8 µM,20 µM,14 µM,0.305 µM,–
